“Also recorded” adds a separate entry of the source.
Experiments:
[1] = tested on: patients with Dravet and Lennox-Gastaut syndrome; conditions: purified pharmaceutical formulation of CBD; three trials; cited from earlier work
[2] = tested on: pilocarpine-induced seizures; conditions: CBDV alone; Hill et al. 2012; cited from earlier work
[3] = tested on: MeCP2 KO mouse model of Rett Syndrome; conditions: WO 2017/178807; cited from earlier work
[4] = tested on: seizures associated with Rett syndrome; assay: Open label, phase I trial of CBDV in patients diagnosed with Rett syndrome (caregiver seizure diary); assay type: in vivo, human; design: Mean seizure frequency reduction: concentration or dose not given beside the values; conditions: for Mean seizure frequency reduction: versus baseline
Source text: Example 1 below describes the use of a botanically derived purified CBDV in an open label, phase I trial to investigate the clinical efficacy and safety of purified pharmaceutical cannabidivarin formulation (CBDV) in the treatment of patients diagnosed with Rett syndrome.
Subjects were required to be on one or more AEDs at stable doses for a minimum of 4 weeks prior to baseline. Subjects had to have been diagnosed with intractable epilepsy: failed adequate trial of two, or more, standard anticonvulsants, and four or more quantifiable seizures less than 8 weeks prior to screening, and two or more quantifiable seizures in prospective baseline phase.
Patients were administered botanically derived purified CBDV in a 50 mg/mL sesame oil-based solution which was titrated to an initial dose of 2.5 milligrams per kilogram per day (mg/kg/day). Doses were then increased to a goal of 10 mg/kg/day.
There were five patients in this study, and each received CBDV for various durations of time. Modifications were made to concomitant AEDs as per clinical indication.
Seizure frequency, intensity, and duration were recorded by caregivers in a diary during a baseline period of at least 28 days. Changes in seizure frequency relative to baseline were calculated after at least 2 weeks and at defined timepoints of treatment.
Patients may be defined as responders if they had more than 50% reduction in seizure frequency compared to baseline. The percent change of seizure frequency for the end of the treatment period was calculated as follows: […]

[5] = tested on: methyl-6, 7-dimethoxy-4-ethyl-beta-carboline-3-carboxylate (DMCM) model; conditions: postnatal day 10 animals; cited from earlier work
[6] = tested on: mouse model of Rett syndrome; conditions: cited from earlier work
[7] = tested on: maximal electroshock model; conditions: postnatal day 10 animals; cited from earlier work
[8] = Patient 1, total over 14 months of CBDV, baseline 0
[9] = Patient 2, total over 11 months of CBDV, baseline 0
[10] = Patient 3, total over 12 months of CBDV, baseline 0
[11] = Patient 4, total over 12.5 months of CBDV, baseline 0
[12] = Patient 5, total over 11 months of CBDV, baseline 0

C=C(C)[C@@H]1CCC(C)=C[C@H]1c1c(O)cc(CCCCC)cc1O [CBD, Cannabidiol]
Efficacy in randomized control trials [1]: showed efficacy

C=C(C)[C@@H]1CCC(C)=C[C@H]1c1c(O)cc(CCC)cc1O [CBDV, cannabidivarin]
Effect on pilocarpine-induced seizures [2]: did not have any effect | Bodyweight and survival [3]: reduce the decrease in bodyweight and survival | General condition and symptoms of mobility and breathing [3]: improved general condition and symptoms of mobility and breathing | Mean seizure frequency reduction ([4]; Patient 1, 14 months of CBDV): 52.5% | Total seizure frequency ([4]; Patient 1, 14 months of CBDV, baseline 32.0/month): 15.2/month | Focal seizures with impairment, Non-motor: seizure count [4, 8]: 2 /14 months | Generalised seizures, Motor other: seizure count [4, 8]: 8 /14 months | Generalised seizures, Motor tonic-clonic: seizure count [4, 8]: 0 /14 months | Non-motor: seizure count [4, 8]: 0 /14 months | Other: seizure count [4, 8]: 1 /14 months | Unknown onset, Motor other: seizure count [4, 8]: 3 /14 months | Unknown onset, Motor tonic-clonic: seizure count [4, 8]: 7 /14 months | Focal seizures with impairment, Motor: seizure count ([4]; Patient 1, total over 14 months of CBDV, baseline 32): 192 /14 months | Mean seizure frequency reduction ([4]; Patient 2, 11 months of CBDV): 79.4% | Total seizure frequency ([4]; Patient 2, 11 months of CBDV, baseline 35.0/month): 7.2/month | Focal seizures with impairment, Motor: seizure count [4, 9]: 0 /11 months | Generalised seizures, Motor other: seizure count [4, 9]: 0 /11 months | Generalised seizures, Motor tonic-clonic: seizure count [4, 9]: 0 /11 months | Non-motor: seizure count [4, 9]: 0 /11 months | Unknown onset, Motor other: seizure count [4, 9]: 0 /11 months | Unknown onset, Motor tonic-clonic: seizure count [4, 9]: 0 /11 months | Other: seizure count ([4]; Patient 2, total over 11 months of CBDV, baseline 3): 18 /11 months | Focal seizures with impairment, Non-motor: seizure count ([4]; Patient 2, total over 11 months of CBDV, baseline 32): 61 /11 months | Mean seizure frequency reduction ([4]; Patient 3, 12 months of CBDV): 90.0% | Total seizure frequency ([4]; Patient 3, 12 months of CBDV, baseline 6.0/month): 0.6/month | Focal seizures with impairment, Non-motor: seizure count [4, 10]: 0 /12 months | Generalised seizures, Motor other: seizure count [4, 10]: 0 /12 months | Non-motor: seizure count [4, 10]: 0 /12 months | Other: seizure count [4, 10]: 0 /12 months | Unknown onset, Motor other: seizure count [4, 10]: 0 /12 months | Unknown onset, Motor tonic-clonic: seizure count [4, 10]: 0 /12 months | Focal seizures with impairment, Motor: seizure count ([4]; Patient 3, total over 12 months of CBDV, baseline 1): 3 /12 months | Generalised seizures, Motor tonic-clonic: seizure count ([4]; Patient 3, total over 12 months of CBDV, baseline 5): 4 /12 months | Mean seizure frequency reduction ([4]; Patient 4, 12.5 months of CBDV): 5.7% | Total seizure frequency ([4]; Patient 4, 12.5 months of CBDV, baseline 7.0/month): 6.6/month | Focal seizures with impairment, Non-motor: seizure count [4, 11]: 0 /12.5 months | Generalised seizures, Motor tonic-clonic: seizure count [4, 11]: 0 /12.5 months | Non-motor: seizure count [4, 11]: 0 /12.5 months | Other: seizure count [4, 11]: 6 /12.5 months | Unknown onset, Motor other: seizure count [4, 11]: 0 /12.5 months | Unknown onset, Motor tonic-clonic: seizure count [4, 11]: 0 /12.5 months | Focal seizures with impairment, Motor: seizure count ([4]; Patient 4, total over 12.5 months of CBDV, baseline 3): 73 /12.5 months | Generalised seizures, Motor other: seizure count ([4]; Patient 4, total over 12.5 months of CBDV, baseline 4): 4 /12.5 months | Mean seizure frequency reduction ([4]; Patient 5, 11 months of CBDV): 98.1% | Total seizure frequency ([4]; Patient 5, 11 months of CBDV, baseline 371.0/month): 7.2/month | Focal seizures with impairment, Motor: seizure count [4, 12]: 0 /11 months | Focal seizures with impairment, Non-motor: seizure count [4, 12]: 0 /11 months | Non-motor: seizure count [4, 12]: 6 /11 months | Other: seizure count [4, 12]: 0 /11 months | Unknown onset, Motor tonic-clonic: seizure count [4, 12]: 0 /11 months | Generalised seizures, Motor other: seizure count ([4]; Patient 5, total over 11 months of CBDV, baseline 18): 18 /11 months | Generalised seizures, Motor tonic-clonic: seizure count ([4]; Patient 5, total over 11 months of CBDV, baseline 25): 38 /11 months | Unknown onset, Motor other: seizure count ([4]; Patient 5, total over 11 months of CBDV, baseline 328): 17 /11 months | Decrease of seizure frequency rates, maximum ([4]; across listed seizure types): up to 98% | Reduction in seizures over the period of treatment, range over patients ([4]; all five patients, 11-14 months of CBDV): 5.7-98.1% | Patients with more than 50% reduction in seizure frequency compared to baseline (responders) ([4]; five patients): four of the five patients | Patients with more than 75% reduction in seizure frequency compared to baseline ([4]; five patients): three | Effect on number of seizures associated with Rett syndrome ([4]; five patients, open label): significantly reduce the number of seizures | Effect on frequency of seizure types ([4]; focal motor/non-motor with impairment, generalised motor/non-motor, unknown onset motor, non-motor and other types): effective in reducing the frequency of all seizure types; also recorded: significant reduction in specific seizure types | Patients with focal seizures with impairment who experienced a reduction in their seizures ([4]; four patients (patient 1-4) suffered from focal seizures with impairment): three (patients 1-3) of these patients experienced a reduction | Patients with generalised seizures who experienced a reduction in these seizures ([4]; three patients (patients 3-5) suffered from generalised seizures): all three experienced a reduction | Seizure suppression [5]: did not suppress seizures | Behavioural alterations ([6]; reference 2): rescue the behavioural alterations | Memory deficits ([6]; reference 3): rescued memory deficits | Neurological and motor defects ([6]; reference 3): delayed the appearance of neurological and motor defects | Seizure suppression [7]: did not suppress seizures

Reference: US20230346809A1, “USE OF CANNABIDIVARIN IN THE TREATMENT OF SEIZURES ASSOCIATED WITH RARE EPILEPSY SYNDROMES RELATED TO GENETIC ABNORMALITIES” (GW Research Limited, priority 2020, published 2023)
